According to ChEMBL document CHEMBL1781990, “Synthesis and pharmacological activity of O-aminoalkyl derivatives of 7-hydroxycoumarin” (2011):
≈ marks a conversion by molar mass, not a printed value. Calls of active or inactive are those of the source. No cut-off for these calls is given here.

Assays:
Staphylococcus aureus [1] = test: Antibacterial against Staphylococcus aureus ATCC 6538 at 20 mg/mL after 24 hrs by NCCLS M7-A6 method; type: functional, organism-based
Escherichia coli [2] = test: Antibacterial against Escherichia coli ATCC 10536 at 20 mg/mL after 24 hrs by NCCLS M7-A6 method; type: functional, organism-based
Escherichia coli [3] = test: Antibacterial against Escherichia coli ATCC 8739 at 20 mg/mL after 24 hrs by NCCLS M7-A6 method; type: functional, organism-based
Staphylococcus aureus [4] = test: Antibacterial against Staphylococcus aureus ATCC 6538P at 20 mg/mL after 24 hrs by NCCLS M7-A6 method; type: functional, organism-based
Escherichia coli [5] = test: Antibacterial against Escherichia coli ATCC 10536 after 24 hrs by NCCLS M7-A6 method; type: functional; conditions: ATCC 10536, 24 h
Bacillus cereus [6] = test: Antibacterial against Bacillus cereus ATCC 11778 after 24 hrs by NCCLS M7-A6 method; type: functional
Staphylococcus aureus [7] = test: Antibacterial against Staphylococcus aureus ATCC 6538P after 24 hrs by NCCLS M7-A6 method; type: functional
Staphylococcus aureus [8] = test: Antibacterial against Staphylococcus aureus ATCC 6538 after 24 hrs by NCCLS M7-A6 method; type: functional; conditions: ATCC 6538, 24 h
Bacillus subtilis [9] = test: Antibacterial against Bacillus subtilis ATCC 6633 after 24 hrs by NCCLS M7-A6 method; type: functional
Micrococcus luteus [10] = test: Antibacterial against Micrococcus luteus ATCC 9341 after 24 hrs by NCCLS M7-A6 method; type: functional
Bacillus cereus [11] = test: Antibacterial against Bacillus cereus ATCC 11778 at 20 mg/mL after 24 hrs by NCCLS M7-A6 method; type: functional, organism-based
Bacillus subtilis [12] = test: Antibacterial against Bacillus subtilis ATCC 6633 at 20 mg/mL after 24 hrs by NCCLS M7-A6 method; type: functional, organism-based
Micrococcus luteus [13] = test: Antibacterial against Micrococcus luteus ATCC 9341 at 20 mg/mL after 24 hrs by NCCLS M7-A6 method; type: functional, organism-based
Micrococcus luteus [14] = test: Antibacterial against Micrococcus luteus ATCC 10240 at 20 mg/mL after 24 hrs by NCCLS M7-A6 method; type: functional, organism-based
HCC 2998 = test: Cytotoxicity against human HCC2998 cells assessed as cell growth inhibition at 10^-5 M; type: functional, cell-based
CCRF-CEM = test: Cytotoxicity against human CCRF-CEM cells assessed as cell growth inhibition at 10^-5 M; type: functional, cell-based
HOP-92 = test: Cytotoxicity against human HOP92 cells assessed as cell growth inhibition at 10^-5 M; type: functional, cell-based
[15] = Bacillus cereus, ATCC 11778, 24 h, read-out: MIC
[16] = Bacillus subtilis, ATCC 6633, 24 h, read-out: MIC
[17] = Micrococcus luteus, ATCC 9341, 24 h, read-out: MIC

| SMILES | Activity (Staphylococcus aureus [1]) | Activity (Escherichia coli [2]) | Activity (Escherichia coli [3]) | Activity (Staphylococcus aureus [4]) | MIC (Escherichia coli [5]) | MIC (Bacillus cereus [6]; [15]) | MIC (Staphylococcus aureus [7]) | MIC (Staphylococcus aureus [8]) | MIC (Bacillus subtilis [9]; [16]) | MIC (Micrococcus luteus [10]; [17]) | other results |
| --- | --- | --- | --- | --- | --- | --- | --- | --- | --- | --- | --- |
| CCN(CC)CCOc1cc2oc(=O)cc(C)c2cc1C(C)=O [listing 1 of 2 here] | inactive | inactive | inactive | inactive |  |  |  |  |  |  |  |
| CC(=O)c1c(OCCN(C)Cc2ccccc2)ccc2c(C)cc(=O)oc12 |  |  | inactive |  | 35.7 mM (≈ 13000 µg/mL) | 2.4 mM (≈ 877 µg/mL) | 23.8 mM (≈ 8700 µg/mL) | 35.7 mM (≈ 13000 µg/mL) | 2.4 mM (≈ 877 µg/mL) | 6 mM (≈ 2190 µg/mL) |  |
| CC(=O)c1cc2c(C)cc(=O)oc2cc1OCCN(C(C)C)C(C)C | inactive | inactive | inactive | inactive |  | 12.5 mM (≈ 4320 µg/mL) |  |  | 12.5 mM (≈ 4320 µg/mL) | 37.5 mM (≈ 13000 µg/mL) |  |
| CCN(CC)CCOc1cc2oc(=O)cc(C)c2cc1C(C)=O.Cl |  |  |  |  | 7.1 mM |  | 7.1 mM | 7.1 mM |  |  | MIC (Bacillus cereus [6]): 0.4 mM; MIC (Bacillus subtilis [9]): 0.4 mM; MIC (Micrococcus luteus [10]): 1.8 mM |
| CC1CCCCN1CCOc1ccc2ccc(=O)oc2c1 (centres undefined) |  |  |  |  | 30.9 mM (≈ 8880 µg/mL) | 30.9 mM (≈ 8880 µg/mL) | 61.8 mM (≈ 17800 µg/mL) | 46.3 mM (≈ 13300 µg/mL) | 30.9 mM (≈ 8880 µg/mL) | 15.4 mM (≈ 4430 µg/mL) |  |
| CC(=O)c1c(OCCN2CCOCC2)ccc2c(C)cc(=O)oc12 | inactive | inactive | inactive | inactive |  |  |  |  |  | 30.2 mM (≈ 10000 µg/mL) | Activity (Bacillus cereus [11]): inactive; Activity (Bacillus subtilis [12]): inactive |
| CCN(CC)CCOc1ccc2c(C)cc(=O)oc2c1C(C)=O |  |  |  |  |  | 3.9 mM (≈ 1240 µg/mL) | 3.9 mM (≈ 1240 µg/mL) | 3.9 mM (≈ 1240 µg/mL) | 3.9 mM (≈ 1240 µg/mL) | 2 mM (≈ 635 µg/mL) |  |
| O=c1ccc2ccc(OCCN3CCOCC3)cc2o1 |  |  |  |  | 36.3 mM (≈ 9990 µg/mL) | 72.6 mM (≈ 20000 µg/mL) | 36.3 mM (≈ 9990 µg/mL) | 72.6 mM (≈ 20000 µg/mL) | 72.6 mM (≈ 20000 µg/mL) | 18.2 mM (≈ 5010 µg/mL) |  |
| Cc1cc(=O)oc2cc(OCCN3CCCCC3C)ccc12 (centres undefined) |  |  |  |  | 14.4 mM (≈ 4340 µg/mL) | 28.8 mM (≈ 8680 µg/mL) | 28.8 mM (≈ 8680 µg/mL) | 43.2 mM (≈ 13000 µg/mL) | 14.4 mM (≈ 4340 µg/mL) | 14.4 mM (≈ 4340 µg/mL) |  |
| Cc1cc(=O)oc2cc(OCCN3CCOCC3)ccc12 | inactive |  |  |  | 51.8 mM (≈ 15000 µg/mL) | 69.1 mM (≈ 20000 µg/mL) | 69.1 mM (≈ 20000 µg/mL) |  | 69.1 mM (≈ 20000 µg/mL) | 8.6 mM (≈ 2490 µg/mL) |  |
| CC(=O)c1cc2c(C)cc(=O)oc2cc1OCCN1CCCCC1C (centres undefined) |  |  | inactive |  | 26.3 mM (≈ 9030 µg/mL) | 1.6 mM (≈ 549 µg/mL) | 26.3 mM (≈ 9030 µg/mL) | 26.3 mM (≈ 9030 µg/mL) | 1.6 mM (≈ 549 µg/mL) | 6.6 mM (≈ 2270 µg/mL) |  |
| CCN(CC)CCOc1cc2oc(=O)cc(C)c2cc1C(C)=O [listing 2 of 2 here] |  |  |  |  |  |  |  |  |  |  | MIC (Bacillus cereus [6]): 63 mM (≈ 20000 µg/mL); MIC (Bacillus subtilis [9]): 31.5 mM (≈ 10000 µg/mL); MIC (Micrococcus luteus [10]): 31.5 mM (≈ 10000 µg/mL) |
| Cc1cc(=O)oc2cc(O)ccc12 [HYMECROMONE] | inactive | inactive | inactive | inactive |  | 85.1 mM (≈ 15000 µg/mL) |  |  |  |  | Activity (Micrococcus luteus [13]): inactive; Activity (Micrococcus luteus [14]): inactive; Activity (Bacillus subtilis [12]): inactive |
| CC(=O)c1cc2c(C)cc(=O)oc2cc1OCCN1CCOCC1 |  |  |  |  | 30.2 mM (≈ 10000 µg/mL) | 30.2 mM (≈ 10000 µg/mL) | 30.2 mM (≈ 10000 µg/mL) | 30.2 mM (≈ 10000 µg/mL) | 30.2 mM (≈ 10000 µg/mL) | 30.2 mM (≈ 10000 µg/mL) | growth inhibition (GI) (HCC 2998): Active; growth inhibition (GI) (CCRF-CEM): Active; growth inhibition (GI) (HOP-92): Active |
| CC(=O)c1cc2c(C)cc(=O)oc2cc1O |  | inactive | inactive | inactive |  | 4.6 mM (≈ 1000 µg/mL) |  | 45.8 mM (≈ 9990 µg/mL) | 22.9 mM (≈ 5000 µg/mL) | 45.8 mM (≈ 9990 µg/mL) |  |
